System: U2OS
Assay: Incucyte cell viability with U2OS; further: filed as whole numbers so only -1 and 0 and 1 occur
Type: toxicity, cell-based
Conditions: human, 10 µM, compound concentration 10 uM
[1] = 0 h, replicate number 1, timepoint 0 hours
[2] = 6 h, replicate number 1, timepoint 6 hours
[3] = 12 h, replicate number 1, timepoint 12 hours
[4] = 18 h, replicate number 1, timepoint 18 hours
[5] = 24 h, replicate number 1, timepoint 24 hours
[6] = 0 h, replicate number 2, timepoint 0 hours
[7] = 6 h, replicate number 2, timepoint 6 hours
[8] = 12 h, replicate number 2, timepoint 12 hours
[9] = 18 h, replicate number 2, timepoint 18 hours
[10] = 24 h, replicate number 2, timepoint 24 hours

| SMILES | Growth Rate [1] | Growth Rate [2] | Growth Rate [3] | Growth Rate [4] | Growth Rate [5] | Growth Rate [6] | Growth Rate [7] | Growth Rate [8] | Growth Rate [9] | Growth Rate [10] |
| --- | --- | --- | --- | --- | --- | --- | --- | --- | --- | --- |
| C=CC(=O)Nc1cccc(Oc2nc(Nc3ccc(N4CCN(C)CC4)cc3OC)ncc2Cl)c1 | 0 | 0 | 0 | 0 | 0 |  |  |  |  |  |
| Cc1cccc(CN2CCN(C(c3ccccc3)c3ccc(Cl)cc3)CC2)c1.Cl.Cl (stereo not given) | 0 |  |  | 1 | 1 | 1 | 0 | 0 | 0 | 0 |
| C=CC(=O)Nc1cccc(Sc2nc(Nc3ccc(N4CCN(C)CC4)cc3)ncc2Cl)c1 | 0 | 0 | 0 | 0 | 0 |  |  |  |  |  |
| CC(C)OC(=O)N1CCC(Oc2ncnc3c2cnn3-c2ccc(S(C)(=O)=O)cc2F)CC1 | 0 |  | 1 | 1 | 1 |  | 0 | 0 | 0 | 0 |
| COc1cc(Nc2nccc(-c3cnn4nc(OC)ccc34)n2)cc(C(F)(F)F)c1 | 1 | 0 | 0 | 0 | 0 | 0 |  |  |  |  |
| O=c1cc(N2CCOCC2)oc2c(-c3cccc4c3sc3ccccc34)cccc12 | 0 | 0 | 0 | 0 | 0 |  | 1 | 1 |  |  |
| O=C(c1cc2c(cc1F)OC(c1ccc(F)cc1)(c1ccc(Cl)cc1Cl)O2)N1CCOCC1 (stereo not given) | 0 |  | 0 | 0 | 0 |  | 1 |  |  |  |
| CC(C)NC(=O)N1CC[C@H](NC2=Nc3cc(F)ccc3N(CC(F)F)c3ccc(Cl)cc32)C1 | 0 | 0 | 0 | 0 | 0 |  | 1 | 1 | 1 |  |
| CC(C)Oc1ccccc1C(=O)Nc1ccccc1C(=O)Nc1cccc(S(=O)(=O)C(F)(F)F)c1 | 0 |  |  | 1 | 1 |  |  |  |  |  |
| CC1=C(C(=O)Nc2cc3cn[nH]c3cc2F)C(c2ccc(C(F)(F)F)cc2)CC(=O)N1 (stereo not given) |  |  |  | 1 | 1 |  |  |  |  |  |
| Cc1nc(N2CC[C@H](O)C2)ncc1-c1cc(C(F)(F)F)cc2[nH]ncc12 | 1 | 0 | 1 | 0 | 0 |  | 1 |  | 1 |  |
| CN1CCN(Cc2cc(NC(=O)c3ccc4c(c3)CN(c3ccccc3)CC4)cc(C(F)(F)F)c2)CC1 | 1 | 0 | 0 | 0 | 0 | 0 | 1 |  |  |  |
| Cl.O=C(O)c1cc(-c2ccc(C3CCNCC3)cc2)c2ccc(-c3ccc(C(F)(F)F)cc3)cc2c1 | 1 | 0 | 0 | 0 | 0 | 0 |  |  |  |  |
| O=c1[nH]c2ccccc2n1C1CCN(Cc2ccc(-c3[nH]c4cc5ncnc5cc4nc3-c3ccccc3)cc2)CC1 | 0 |  | 0 | 0 | 0 |  |  | 1 | 1 | 1 |
| CCc1ccc(OCc2ccccc2C(=O)Nc2ccc3nc(C)cc(N)c3c2)cc1.Cl | 0 | 0 | 0 | 0 | 0 |  |  |  |  |  |
| CNC(=O)Nc1ccc(-c2nc(N3CC4CCC(C3)O4)c3cnn(C4CCC5(CC4)OCCO5)c3n2)cc1 |  | 1 | 0 | 0 | 0 | 0 |  |  | 1 | 1 |
| CNC(=O)Nc1ccc2c(c1)[C@@]1(CC2)OC(=O)N(CC(=O)N(Cc2ccc(F)cc2)[C@@H](C)C(F)(F)F)C1=O [A-486] | 0 | 0 | 0 | 0 | 0 |  |  | 1 |  | 1 |
| CNCc1ccccc1-c1csc([C@@H](C)Nc2nc(C)nc3cc(OC)c(OC)cc23)c1 [BAY-293] | 0 | 0 | 0 | 0 | 0 |  | 1 |  |  |  |
| Cc1cc(NC(=O)c2cccc(S(F)(F)(F)(F)F)c2)cc(-n2ccn3nc(-c4cccnc4)cc23)c1 [BAY-309] |  | 0 | 0 | 0 | 0 | 0 |  |  |  |  |

| SMILES | Growth Rate [1] | Growth Rate [2] | Growth Rate [3] | Growth Rate [4] | Growth Rate [5] | Growth Rate [6] | Growth Rate [7] | Growth Rate [8] | Growth Rate [9] | Growth Rate [10] |
| --- | --- | --- | --- | --- | --- | --- | --- | --- | --- | --- |
| Cc1c[nH]c2nccc(Oc3c(F)cc(Nc4cc(Cl)nc(N)n4)cc3F)c12 [BAY-549] |  | 0 | 0 | 0 | 0 | 0 |  |  |  |  |
| Cc1cc(C)c(-n2ccn3nc(-c4cccnc4)cc23)cc1NC(=O)c1cc(C#N)cc(S(F)(F)(F)(F)F)c1 [BAY-826] |  | 1 | 0 | 0 | 0 | 0 |  |  |  |  |
| COc1ccc(-c2ccc3ncc4c(c3c2)n(-c2ccc(N3CCNCC3)c(C(F)(F)F)c2)c(=O)n4C)cn1.O=C(O)/C=C\C(=O)O [BGT-226] | 0 | 0 | 0 | 0 | 0 |  |  |  |  |  |
| C=CC(=O)Nc1ccc2[nH]c(=O)n(C3CCN(Cc4ccc(-c5nc6cc[nH]c(=O)c6cc5-c5ccccc5)cc4)CC3)c2c1 [Borussertib] |  | 1 | 1 | 1 | 1 | 1 |  |  |  | 0 |
| COc1ccccc1CN[C@H]1C2CCN(CC2)[C@H]1C(c1ccccc1)c1ccccc1 [CP-96345] | 0 |  | 1 | 1 | 1 |  | 1 |  |  |  |
| CNC(=O)c1ccc(Nc2ncc(C(F)(F)F)c(NCc3nccnc3N(C)S(C)(=O)=O)n2)cc1 [DEFACTINIB] | 0 | 1 | 0 | 0 | 0 | 1 | 0 |  |  |  |
| CN1CCN(Cc2ccc(Nc3ncc(Cl)c(Nc4ccccc4S(=O)(=O)N(C)C)n3)cc2)CC1 [DUBERMATINIB] | 0 | 1 | 0 | 0 | 0 |  |  |  |  |  |
| C#Cc1cccc(Nc2ncnc3cc(OCCOC)c(OCCOC)cc23)c1 [ERLOTINIB] |  |  | 1 | 0 | 1 | 1 | 0 | 0 |  | 0 |
| C[C@]12CC[C@@H]3c4ccc(O)cc4CC[C@H]3[C@@H]1CC[C@@H]2O [ESTRADIOL] |  | 0 | 0 | 0 | 0 | 0 |  |  |  |  |
| CC(C)c1noc(N2CCC(COc3ccc(-c4ccc(S(C)(=O)=O)cc4)nc3)CC2)n1 [GSK-1292263] | 0 |  |  | 1 | 1 |  |  | 1 |  |  |
| COc1cc2ncn(-c3cc(OCc4ccccc4C(F)(F)F)c(C(N)=O)s3)c2cc1OC [GW843682X] |  |  | 1 | 0 | 0 | 0 |  | 0 |  |  |
| Cc1ccc2c(c1)c1c(n2CCc2ccc(C)nc2)CCN(C)C1 [LATREPIRDINE] | 0 |  | 1 | 0 | 1 |  | 0 |  |  | 0 |
| C[C@]1(O)C[C@@H](c2nc(-c3ccc4ccc(-c5ccccc5)nc4c3)c3c(N)nccn32)C1 [LINSITINIB] | 1 | 0 | 0 | 0 | 0 |  |  |  |  |  |
| CCc1nn(CCCN2CCN(c3cccc(Cl)c3)CC2)c(=O)n1CCOc1ccccc1.Cl [NEFAZODONE HYDROCHLORIDE] |  | 1 | 0 | 1 | 0 |  |  |  | 0 |  |
| COC(=O)C1=C(C)NC(C)=C(C(=O)OCCCN2CCC(c3ccccc3)(c3ccccc3)CC2)[C@H]1c1cccc([N+](=O)[O-])c1 [NIGULDIPINE] | 0 |  | 0 | 0 | 0 |  | 0 |  |  |  |
| CC(C)CC(=O)Nc1[nH]nc2c1CN(C(=O)C1CCN(C)CC1)C2(C)C [PHA-793887] | 1 | 0 | 0 | 0 | 0 | 0 |  |  |  |  |
| CCCSc1nc(N[C@@H]2C[C@H]2c2ccc(F)c(F)c2)c2nnn([C@@H]3C[C@H](OCCO)[C@@H](O)[C@H]3O)c2n1 [TICAGRELOR] | 0 | 0 | 0 | 0 | 0 |  |  |  |  |  |
| CC(C)(C)NC[C@H](O)COc1nsnc1N1CCOCC1 [TIMOLOL] | 0 |  |  | 1 | 1 |  | 1 | 1 |  |  |

Reference: ChEMBL document CHEMBL4689842, “EUbOPEN Chemogenomics Library wave 1” (2021)
